SMILES strings stand for the structures. Like-named read-outs stand apart in the source and are kept apart here.

We go through 14 molecules from US10206399B2, “Herbicidal composition comprising uracil compound as active ingredient” (Dongbu Farm Hannong Co., Ltd., priority 2012, dated 2019).

In series [1] the test system is Echinochloa crus. The note with it: for plant mortality, measured value: Echinochloa crus; for Echinochloa crus mortality, measured value: 20 days after treatment.
Excerpt: (§1) X is % damage by uracil compound (a) of formula 1 at the rate of application of p kg/ha; Y is % damage by conventional herbicidal compound (b) at the rate of application of q kg/ha; and E is the expected damage caused by compounds (a) and (b) at a rate of application of p and q kg/ha.
(§2) The expected activity for a given combination of two herbicides can be calculated using equation 1 above.
For the next series, the system named is Digitaria sanguinalis. The note with it: for plant mortality, measured value: Digitaria sanguinalis; for Digitaria sanguinalis mortality, measured value: 20 days after treatment.
A further series has as its system Abutilon theophrasti. The note with it: for plant mortality, measured value: Abutilon theophrasti; for Abutilon theophrasti mortality, measured value: 20 days after treatment.
A further series relates to Aeschynomene indica. The note with it: for plant mortality, measured value: Aeschynomene indica; for Aeschynomene indica mortality, measured value: 20 days after treatment.
A further series deals with Xanthium spinosum. The conditions noted are these: for plant mortality, measured value: Xanthium spinosum; for Xanthium spinosum mortality, measured value: 20 days after treatment.
For a further series, the system named is Monochoria vaginalis. The series can be described thus: Paddy field farming herbicidal composition test, plant mortality. It is filed as in vivo.
The test system of series [2] is Echinochloa crus. The description is as above. The class given is in vivo.
Excerpt: as §1, §2

Excerpt for Abutilon theophrasti: as §1, §2
Excerpt for Aeschynomene indica: as §1, §2
Excerpt for Digitaria sanguinalis: as §1, §2
Excerpt for Monochoria vaginalis: as §1, §2
Excerpt for Xanthium spinosum: as §1, §2

Consider `O=C(O)COc1ccc(Cl)cc1Cl` [2,4-D)], for which the “Data (measured value) Echinochloa crus” value in the series on Echinochloa crus [1] (200 g/ha) and with Echinochloa crus [1] (400 g/ha) was 0 in each case. Also, the “Data (measured value) Digitaria sanguinalis” value with Digitaria sanguinalis (200 g/ha) and in the series with Digitaria sanguinalis (400 g/ha) was 0 each time. In addition, the “Data (measured value) Abutilon theophrasti” value with Abutilon theophrasti (200 g/ha) was 21; with Abutilon theophrasti (400 g/ha), 47. In addition, the “Data (measured value) Aeschynomene indica” value with Aeschynomene indica (200 g/ha) worked out at 24; in the series on Aeschynomene indica (400 g/ha), 51. For the same molecule, the “Data (measured value) Xanthium spinosum” value in the series with Xanthium spinosum (200 g/ha) amounted to 22; with Xanthium spinosum (400 g/ha), 50.

With `O=C(O)COc1ccc(Cl)cc1Cl` [2,4-D], the “Data (measured value) Echinochloa crus” value in the series with Echinochloa crus [1] (100 g/ha) is 0. The “plant mortality, measured value” with Echinochloa crus [1] (100 g/ha), with Echinochloa crus [1] (200 g/ha), in the series with Echinochloa crus [1] (400 g/ha), with Digitaria sanguinalis (100 g/ha), in the series on Digitaria sanguinalis (200 g/ha) and with Digitaria sanguinalis (400 g/ha) was 0 each time. Further, the “plant mortality, measured value” with Abutilon theophrasti (100 g/ha) worked out at 7; in the series with Abutilon theophrasti (200 g/ha), 21; in the series on Abutilon theophrasti (400 g/ha), 47; with Aeschynomene indica (100 g/ha), 7; in the series with Aeschynomene indica (200 g/ha), 24; with Aeschynomene indica (400 g/ha), 51. The “plant mortality, measured value” in the series on Xanthium spinosum (100 g/ha) amounted to 10; in the series with Xanthium spinosum (200 g/ha) it was 22; with Xanthium spinosum (400 g/ha), 50. The “Data (measured value) Digitaria sanguinalis” value with Digitaria sanguinalis (100 g/ha) is listed as 0. The “Data (measured value) Abutilon theophrasti” value in the series on Abutilon theophrasti (100 g/ha) is 7. Besides, the “Data (measured value) Aeschynomene indica” value in the series with Aeschynomene indica (100 g/ha) is 7. Moreover, the “Data (measured value) Xanthium spinosum” value in the series with Xanthium spinosum (100 g/ha) is on record as 10.

As for `C=CCOC(=O)C(C)(C)OC(=O)c1cc(-n2c(=O)cc(C(F)(F)F)n(C)c2=O)ccc1Cl` [(Butafenacil], the “plant mortality, measured value” with Echinochloa crus [1] (16 g/ha) is recorded as 5; in the series on Digitaria sanguinalis (16 g/ha) it was 5; in the series on Abutilon theophrasti (16 g/ha), 51; with Aeschynomene indica (16 g/ha), 67; in the series on Xanthium spinosum (16 g/ha), 54.

For the molecule `C[C@@H](Oc1ccc(Oc2ncc(Cl)cc2F)cc1)C(=O)O` [Clodinafop, reference compound], the “Echinochloa crus mortality, measured value” (shortened to “Echinochloa crus mortality”) was 25% in the series with Echinochloa crus [1] (15 g/ha) and 53% in the series on Echinochloa crus [1] (30 g/ha). The “Digitaria sanguinalis mortality, measured value” in the series with Digitaria sanguinalis (15 g/ha) turned out to be 21%; in the series on Digitaria sanguinalis (30 g/ha), 50%. For the same molecule, the “Abutilon theophrasti mortality, measured value” in the series on Abutilon theophrasti (15 g/ha) and in the series on Abutilon theophrasti (30 g/ha) was 0% each time. For the same molecule, the “Aeschynomene indica mortality, measured value” in the series on Aeschynomene indica (15 g/ha) and in the series with Aeschynomene indica (30 g/ha) was 0% in each case. Moreover, the “Xanthium spinosum mortality, measured value” in the series with Xanthium spinosum (15 g/ha) and with Xanthium spinosum (30 g/ha) was 0% throughout.

For the molecule `Cc1cc(Cl)ccc1OCC(=O)O` [MCPA], the “Data (measured value) Echinochloa crus” value in the series with Echinochloa crus [1] (75 g/ha), with Echinochloa crus [1] (150 g/ha) and with Echinochloa crus [1] (300 g/ha) was 0 in each case. Moreover, the “Data (measured value) Digitaria sanguinalis” value in the series on Digitaria sanguinalis (75 g/ha), with Digitaria sanguinalis (150 g/ha) and with Digitaria sanguinalis (300 g/ha) was 0 throughout. For the same molecule, the “Data (measured value) Abutilon theophrasti” value was found to be 11 with Abutilon theophrasti (75 g/ha), 32 in the series with Abutilon theophrasti (150 g/ha) and 64 in the series with Abutilon theophrasti (300 g/ha). In addition, the “Data (measured value) Aeschynomene indica” value is given as 11 with Aeschynomene indica (75 g/ha), 24 in the series with Aeschynomene indica (150 g/ha) and 58 in the series on Aeschynomene indica (300 g/ha). Besides, the “Data (measured value) Xanthium spinosum” value in the series with Xanthium spinosum (75 g/ha) amounted to 8; with Xanthium spinosum (150 g/ha) it was 25; in the series with Xanthium spinosum (300 g/ha) it was 59.

For the molecule `Cc1cc(Cl)ccc1OCCCC(=O)O` [MCPB], the “plant mortality, measured value” is listed as 9 in the series with Echinochloa crus [1] (75 g/ha); 27 in the series on Echinochloa crus [1] (150 g/ha); 57 in the series with Echinochloa crus [1] (300 g/ha); 12 in the series with Digitaria sanguinalis (75 g/ha); 25 with Digitaria sanguinalis (150 g/ha); 56 in the series with Digitaria sanguinalis (300 g/ha). For the same molecule, the “plant mortality, measured value” is on record as 11 in the series on Abutilon theophrasti (75 g/ha); 22 with Abutilon theophrasti (150 g/ha); 52 in the series on Abutilon theophrasti (300 g/ha); 13 in the series on Aeschynomene indica (75 g/ha); 32 with Aeschynomene indica (150 g/ha); 64 with Aeschynomene indica (300 g/ha). In addition, the results for the “plant mortality, measured value” in the series on Xanthium spinosum (75 g/ha), in the series with Xanthium spinosum (150 g/ha) and in the series on Xanthium spinosum (300 g/ha) were 12, 27 and 58, respectively.

For the molecule `C[C@@H](Oc1ccc(Oc2nc3ccc(Cl)cc3o2)cc1)C(=O)N(C)c1ccccc1F` [Metamifop, reference compound], the results for the “Echinochloa crus mortality” value in the series with Echinochloa crus [1] (25 g/ha), in the series with Echinochloa crus [1] (50 g/ha) and in the series with Echinochloa crus [1] (100 g/ha) were 11%, 26% and 57%, respectively. Besides, the “plant mortality, measured value” in the series on Echinochloa crus [1] (25 g/ha) came out at 11; in the series on Echinochloa crus [1] (50 g/ha), 26; with Echinochloa crus [1] (100 g/ha) it was 57; in the series with Digitaria sanguinalis (25 g/ha), 11; in the series on Digitaria sanguinalis (50 g/ha) it was 23; in the series with Digitaria sanguinalis (100 g/ha) it was 48. Also, the “plant mortality, measured value” in the series with Abutilon theophrasti (25 g/ha), in the series on Abutilon theophrasti (50 g/ha), in the series with Abutilon theophrasti (100 g/ha), in the series on Aeschynomene indica (25 g/ha), with Aeschynomene indica (50 g/ha) and with Aeschynomene indica (100 g/ha) was 0 each time. Besides, the “plant mortality, measured value” in the series on Xanthium spinosum (25 g/ha), in the series with Xanthium spinosum (50 g/ha) and in the series with Xanthium spinosum (100 g/ha) was 0 throughout. Besides, the “Digitaria sanguinalis mortality, measured value” was 11% with Digitaria sanguinalis (25 g/ha), 23% with Digitaria sanguinalis (50 g/ha) and 48% in the series with Digitaria sanguinalis (100 g/ha). Further, the “Abutilon theophrasti mortality, measured value” in the series on Abutilon theophrasti (25 g/ha), with Abutilon theophrasti (50 g/ha) and in the series with Abutilon theophrasti (100 g/ha) was 0% each time. Further, the “Aeschynomene indica mortality, measured value” with Aeschynomene indica (25 g/ha), in the series on Aeschynomene indica (50 g/ha) and in the series on Aeschynomene indica (100 g/ha) was 0% throughout. Moreover, the “Xanthium spinosum mortality, measured value” with Xanthium spinosum (25 g/ha), with Xanthium spinosum (50 g/ha) and with Xanthium spinosum (100 g/ha) was 0% each time.

With `CON=C(C)c1cccc(Oc2nc(OC)cc(OC)n2)c1C(=O)O` [Pyriminobac], the “Monochoria vaginalis mortality (measured value)” value (“Monochoria vaginalis mortality” below) in the series on Monochoria vaginalis (11 g/ha) came to 0. The “Echinochloa crus mortality” value in the series on Echinochloa crus [2] (11 g/ha) stood at 50.

For `COCc1cccc(C(O)c2nc(OC)cc(OC)n2)c1NS(=O)(=O)C(F)F` (centres unmarked) [Pyrimisulfan], the “Monochoria vaginalis mortality” value with Monochoria vaginalis (16.5 g/ha) was found to be 50. Besides, the “Echinochloa crus mortality” value in the series with Echinochloa crus [2] (16.5 g/ha) is on record as 40.

Take `COc1cc(OC)nc(Sc2cccc3c2C(=O)OC3C)n1` (centres unmarked) [Pyritlalid]: in the series on Monochoria vaginalis (37.5 g/ha), the “Monochoria vaginalis mortality” value is reported as 0. The “Echinochloa crus mortality” value with Echinochloa crus [2] (37.5 g/ha) came out at 30.

Turning to `NC1=C(Cl)C(=O)c2ccccc2C1=O` [Quinoclamine], the “Monochoria vaginalis mortality” value with Monochoria vaginalis (450 g/ha) turned out to be 0. The “Echinochloa crus mortality” value in the series with Echinochloa crus [2] (450 g/ha) was 0.

In the case of `COc1nc(OC)nc(C(=O)c2cccc(F)c2N(C)S(=O)(=O)C(F)F)n1` [Triafamone], the “Monochoria vaginalis mortality” value in the series on Monochoria vaginalis (12.5 g/ha) came out at 10. In the series on Echinochloa crus [2] (12.5 g/ha), the “Echinochloa crus mortality” value amounted to 50.

For `COc1cc(OC)nc(NC(=O)NS(=O)(=O)c2ncccc2OCC(F)(F)F)n1` [Trifloxysulfuron], the “Data (measured value) Echinochloa crus” value is 8 with Echinochloa crus [1] (1.25 g/ha) and 56 in the series with Echinochloa crus [1] (5 g/ha). Moreover, the “plant mortality, measured value” with Echinochloa crus [1] (1.25 g/ha) was 8; with Echinochloa crus [1] (5 g/ha), 56; in the series on Digitaria sanguinalis (1.25 g/ha), 8; with Digitaria sanguinalis (5 g/ha) it was 51; in the series on Abutilon theophrasti (1.25 g/ha) it was 12; in the series with Abutilon theophrasti (5 g/ha) it was 61. Moreover, the “plant mortality, measured value” with Aeschynomene indica (1.25 g/ha) turned out to be 9; in the series with Aeschynomene indica (5 g/ha), 58; with Xanthium spinosum (1.25 g/ha), 13; in the series with Xanthium spinosum (5 g/ha) it was 62. For the same molecule, the entries for the “Data (measured value) Digitaria sanguinalis” value in the series on Digitaria sanguinalis (1.25 g/ha) and with Digitaria sanguinalis (5 g/ha) were 8 and 51, respectively. Besides, the results for the “Data (measured value) Abutilon theophrasti” value in the series with Abutilon theophrasti (1.25 g/ha) and in the series with Abutilon theophrasti (5 g/ha) were 12 and 61, respectively. Moreover, the “Data (measured value) Aeschynomene indica” value with Aeschynomene indica (1.25 g/ha) is on record as 9; in the series with Aeschynomene indica (5 g/ha), 58. Further, the “Data (measured value) Xanthium spinosum” value was 13 with Xanthium spinosum (1.25 g/ha) and 62 in the series with Xanthium spinosum (5 g/ha).

Take `CCSC(=O)N1CCCCCC1` [molinate]: the pest or weed control at 500 g/ha stood at 0% with Monochoria vaginalis (Pontederia vaginalis, read-out: Monochoria vaginalis mortality (measured value)) and 50% in the series with Echinochloa crus [2] (Echinochloa, read-out: Echinochloa crus mortality, measured value).
